Values of other authors in patent publication US20040033271A1, “Methods for contemporaneous administration of levamisole and 5-fluorouracil” (priority 2003, published 2004).
Where two headings read alike, the source gives them in different places.

Tests used:
bladder cancer = conditions: rats
[1] = not given; remark: listed apart in the source
Dukes' C. colon cancer = conditions: levamisole alone
[2] = not given; remark: listed apart in the source
colorectal cancer = conditions: added to leucovorin/5-FU regimen after surgical resection
A375 melanoma cell line = conditions: most sensitive cell line
breast cancer [3] = conditions: superimposed on CAF; no same-day 5-FU and levamisole
breast cancer [4] = conditions: post-surgical levamisole, large study
[5] = levamisole in humans
[6] = test system: Human colorectal cancer xenografts; conditions: levamisole alone
[7] = guinea pigs

In the case of c1ccc([C@@H]2CN3CCSC3=N2)cc1 [Dexamisole], the “potentiation of BCNU compared with levamisole” value (bladder cancer) is listed as “less active”.
In the case of Brc1ccc([C@H]2CN3CCSC3=N2)cc1 [4-bromo analogue of levamisole, 4-bromolevamisole], the phosphatase inhibition (phosphatases) is listed as “capable of inhibiting phosphatases”.
In the case of c1ccc([C@H]2CN3CCSC3=N2)cc1 [levamisole], the “adverse effect of increased oral dose” value (five-fold increase in the recommended oral levamisole dose) is given as “severe nausea and vomiting”, the maximum tolerable dose (oral t.i.d. for five days with daily 5-FU, repeated every five weeks) is given as 100 mg/m^2 and the “time after administration at which cardiac effects are seen” value ([1]; bolus IV, stated for rats and guinea pigs together) is given as at most 60 s. For the same compound, the “IV dose at which cardiotoxicity was observed (as low as)” value ([1]; rats, IV) was 2 mg/kg, the clinical benefit (Dukes' C. colon cancer) was “no benefit” and the “time to peak plasma concentration” value ([2]; after oral levamisole administration) was 2 h. For the same compound, the “difference between the highest and lowest AUC (area under curve)” value ([2]; twenty cancer patients, oral levamisole 50 mg t.i.d.) was “seven”, the “effect of addition of levamisole” value (colorectal cancer) was “no additive effect” and the “levamisole concentration affecting colony formation” value (A375 melanoma cell line; in presence of 5-FU) was 30 µg/mL. The “levamisole concentration affecting colony formation” value (A375 melanoma cell line; molar value in brackets) was 0.125 µM, the “effect of added levamisole” value (breast cancer [3]) was “modest effects over untreated historical controls” and the recurrence (breast cancer [4]) was “increase in recurrence”. For the same compound, the serum half-life [5] was “about four”, the effect on xenografts [6] was “unaffected” and the “IV dose at which ECG irregularities were seen” value [7] was 10 mg/kg.
In the case of Oc1ccc([C@H]2CN3CCSC3=N2)cc1 [4-hydroxy analogue of levamisole, 4-hydroxylevamisole], the phosphatase inhibition (phosphatases) is listed as “capable of inhibiting phosphatases”.
